Assay results as given in patent US20260364080A1, “PYRAZOLO-PYRIMIDINONE COMPOUNDS FOR USE IN METHODS OF INHIBITING WEE1 A KINASE” (Acrivon Therapeutics, Inc., priority 2023, published 2026).

Key:
[1] = target: T1, Myt1 kinase (recombinant PMYT-1) (Homo sapiens, UniProt Q99640); assay: Myt1 kinase binding assay (LanthaScreen Eu Kinase Binding Assay); conditions: 3 nM tracer 178, 2.5 nM PMYT-1, 1 nM Eu-labeled antibody; read-out: Myt1 kinase Binding IC50
T1 construct: full length PMYT-1 was expressed by baculovirus in insect cells; purchased Invitrogen A30984; host or cells: insect cells (baculovirus)
T1 sequence (Q99640 1-499): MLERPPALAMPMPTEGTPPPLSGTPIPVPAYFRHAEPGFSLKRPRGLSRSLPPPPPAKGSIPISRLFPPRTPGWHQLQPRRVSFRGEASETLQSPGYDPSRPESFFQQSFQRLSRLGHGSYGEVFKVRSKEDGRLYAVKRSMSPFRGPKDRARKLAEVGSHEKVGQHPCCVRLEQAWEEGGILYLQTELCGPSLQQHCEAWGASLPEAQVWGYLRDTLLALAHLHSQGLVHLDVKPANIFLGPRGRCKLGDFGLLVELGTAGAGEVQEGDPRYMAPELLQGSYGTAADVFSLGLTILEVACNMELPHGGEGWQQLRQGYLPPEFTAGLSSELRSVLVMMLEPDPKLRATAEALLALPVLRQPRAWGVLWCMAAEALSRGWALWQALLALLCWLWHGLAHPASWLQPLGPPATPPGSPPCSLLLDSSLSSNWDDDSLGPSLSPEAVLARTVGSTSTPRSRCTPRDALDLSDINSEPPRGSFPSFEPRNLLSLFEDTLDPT
In short: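 The binding affinity of compounds for Myt1 kinase was measured with a LanthaScreen Europium (Eu) Kinase Binding Assay, a time-resolved FRET format in which test compounds compete against a labeled kinase tracer, and the results were expressed as IC50 values describing compound binding to Myt1.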

A427 cells = assay: Cell Titer Glo viability assay, A427 cells; type: cell-based; conditions: Homo sapiens, A-427, 144 h, absolute EC50
Description: Each of an ACHN renal cell carcinoma cell line (ATCC) and a DAOY medulloblastoma cell line, and an A427 lung cancer line were cultured in Minimum Essential Medium Eagle supplemented with 10% fetal calf serum (Sigma), 1% Penicillin-Streptomycin and 10 mM HEPES buffer (HyClone). Cell cultures were kept in a humidified incubator at 37 °C and 5% CO2. Cells were routinely tested for Mycoplasma contamination.
ACHN cells, DAOY cells, or A427 cells were seeded at a density of 400, 250, or 500 cells per well respectively, in tissue culture treated 384 well plates (Corning Costar). After overnight incubation, cells were treated with drugs at concentrations ranging from 17 to 10 000 nM. Viability compared to untreated control was assessed at 144 h using Cell Titer Glo assay 2.0 (Promega). […] “NT” means the compounds was not tested in the indicated cells.

[2] = target: T2, Myt1 kinase (CDK1 Thr14 phosphorylation in DAOY medulloblastoma cells) (Homo sapiens, UniProt Q99640); assay: AlphaLISA assay, Myt1 kinase target engagement (phospho-CDK1 Thr14) in DAOY cells; type: cell-based; conditions: 4 h treatment, read-out: CDK1 Thr14 Phosphorylation EC50
T2 construct: pCDK1 Thr14 AlphaLISA read-out
T2 sequence (Q99640 1-499): T1 sequence (Q99640 1-499)
In short: (§1)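 Cells seeded at 10,000 (DAOY) or 20,000 (ACHN) per well, treated 24 h later for 4 h with compound at 7–5000 nM. Lysates analysed by AlphaLISA SureFire Ultra phospho-CDK1 (Thr14) with donor/acceptor beads; EC50 from dose-response curves.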

[3] = target: T3, Wee1A kinase (CDK1 Tyr15 phosphorylation in ACHN renal cell carcinoma cells) (Homo sapiens, UniProt P30291); assay: High-content imaging of pCdk1 Y15, Wee1A kinase target engagement in ACHN cells; type: cell-based; conditions: 4 h treatment, nuclear positivity for pCdk1 Y15 vs DMSO control, read-out: CDK1 Tyr15 Phosphorylation EC50
T3 construct: pCDK1 Tyr15 immunofluorescence read-out
T3 sequence (P30291 whole entry): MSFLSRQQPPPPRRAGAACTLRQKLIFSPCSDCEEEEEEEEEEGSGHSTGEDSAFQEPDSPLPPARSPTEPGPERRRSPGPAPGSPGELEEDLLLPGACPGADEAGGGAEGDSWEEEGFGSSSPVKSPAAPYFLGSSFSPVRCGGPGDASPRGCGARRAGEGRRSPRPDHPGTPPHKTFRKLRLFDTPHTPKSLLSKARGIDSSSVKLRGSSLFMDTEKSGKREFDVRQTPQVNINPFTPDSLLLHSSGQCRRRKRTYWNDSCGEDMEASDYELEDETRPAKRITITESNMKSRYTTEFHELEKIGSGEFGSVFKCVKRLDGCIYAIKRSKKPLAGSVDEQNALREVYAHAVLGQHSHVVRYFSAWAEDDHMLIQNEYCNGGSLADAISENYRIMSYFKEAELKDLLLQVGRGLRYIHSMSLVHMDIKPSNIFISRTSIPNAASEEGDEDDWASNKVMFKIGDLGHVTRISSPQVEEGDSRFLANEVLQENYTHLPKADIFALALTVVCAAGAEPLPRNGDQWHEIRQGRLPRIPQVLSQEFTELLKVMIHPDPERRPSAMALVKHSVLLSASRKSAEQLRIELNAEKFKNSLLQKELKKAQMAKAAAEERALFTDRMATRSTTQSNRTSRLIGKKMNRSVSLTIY
In short: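 ACHN cells exposed to compound for 4 h over 7–5,000 nM or 0.3–200 nM, then fixed and immunostained for pCDK1 Y15 with DAPI nuclear counterstain. The percentage of pCdk1 Y15 nucleus-positive cells relative to DMSO control was imaged per well; EC50 from dose-response curves.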

[4] = target: T4, recombinant human Wee1A kinase (Homo sapiens, UniProt P30291); assay: Wee1A kinase binding assay (LanthaScreen Eu time-resolved FRET); conditions: 30 nM tracer 178, 5 nM Wee1A kinase, 2 nM Eu-labeled antibody; 60 minutes at room temperature; read-out: Wee1A kinase Binding IC50
T4 construct: full length Wee1 kinase was expressed by baculovirus in insect cells; purchased Invitrogen PV3817; host or cells: insect cells (baculovirus)
T4 sequence (P30291 whole entry): as above
In short: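 Full-length, baculovirus-expressed GST-tagged Wee1A (5 nM) was mixed with 2 nM Eu-anti-GST antibody, 30 nM kinase tracer 178 and compound (1% DMSO). Buffer was 50 mM HEPES pH 7.5, 10 mM MgCl2, 1 mM EGTA, 0.01% Brij-35, incubated 60 min at room temperature. TR-FRET 665/615 nm emission ratios from duplicates were curve-fitted.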

DAOY cells = assay: Cell Titer Glo viability assay, DAOY cells; type: cell-based; conditions: Homo sapiens, 144 h, absolute EC50
In short: (§2)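 Cells grown in MEM with 10% FCS were seeded at 500 (A427), 400 (ACHN) or 250 (DAOY) per well and treated the next day with compound at 17 to 10 000 nM. Viability relative to untreated control was read at 144 h by CellTiter-Glo 2.0.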

ACHN cells = assay: Cell Titer Glo viability assay, ACHN cells; type: cell-based; conditions: Homo sapiens, 144 h, absolute EC50
In short: as §2

[5] = target: T5, Myt1 kinase (CDK1 Thr14 phosphorylation in ACHN renal cell carcinoma cells) (Homo sapiens, UniProt Q99640); assay: AlphaLISA assay, Myt1 kinase target engagement (phospho-CDK1 Thr14) in ACHN cells; type: cell-based; conditions: ACHN cells (marked *); 4 h treatment
T5 construct: pCDK1 Thr14 AlphaLISA read-out
T5 sequence (Q99640 1-499): T1 sequence (Q99640 1-499)
In short: as §1

[6] = test system: RAS/TP53 mutated metastatic colorectal cancer; conditions: cited from earlier work
uterine serous carcinoma = conditions: phase II study, women with uterine serous carcinoma; cited from earlier work

IC50 [1]	EC50 [2]	EC50 [3]	IC50 [4]	EC50 (ACHN cells)	EC50 [5]	SMILES	EC50 (A427 cells)	EC50 (DAOY cells)	effect compared to active monitoring [6]	clinical activity (uterine serous carcinoma)
20 to 100 nM	200 to 500 nM	< 100 nM	< 10 nM	≤ 100 nM	–	C=CCn1c(=O)c2cnc(Nc3ccc(OCC(F)(F)F)cc3)nc2n1-c1cccc(OC2CCN(C)CC2)n1 [Compound 291, 2-allyl-1-[6-(1-methyl-4-piperidyloxy)-2-pyridyl]-6-[p-(2,2,2-trifluoroethoxy)phenylamino]-1,2-dihydro-3H-1,2,5,7-tetraazainden-3-one]	≤ 100 nM	≤ 100 nM	–	–
20 to 100 nM	–	< 100 nM	< 10 nM	≤ 100 nM	500 to 1000 nM	CCn1c(=O)c2cnc(Nc3ccc4c(cnn4C)c3)nc2n1-c1cccc(OC2CCN(C)CC2)n1 [Compound 114, 2-ethyl-6-(1-methyl-1H-indazol-5-ylamino)-1-[6-(1-methyl-4-piperidyloxy)-2-pyridyl]-1,2-dihydro-3H-1,2,5,7-tetraazainden-3-one]	100 to 500 nM	≤ 100 nM	–	–
–	–	–	–	–	–	C=CCn1c(=O)c2cnc(Nc3ccc(N4CCN(C)CC4)cc3)nc2n1-c1cccc(C(C)(C)O)n1 [AZD1775, adavosertib]	–	–	shown effect compared to active monitoring	promising results
20 to 100 nM	< 200 nM	< 100 nM	< 10 nM	≤ 100 nM	–	C=CCn1c(=O)c2cnc(Nc3ccc4c(c3)ncn4C)nc2n1-c1cccc(OC2CCN(C)CC2)n1 [Compound 211, 2-allyl-6-(1-methyl-1H-1,3-benzimidazol-5-ylamino)-1-[6-(1-methyl-4-piperidyloxy)-2-pyridyl]-1,2-dihydro-3H-1,2,5,7-tetraazainden-3-one]	≤ 100 nM	≤ 100 nM	–	–
